Results taken from US20250213525A1, “Atopic Dermatitis Improving Agent, Interleukin Production Inhibitor, and Inhibitor of Expression of Interleukin Gene” (PIAS CORPORATION, priority 2022, published 2025).

Legend:
Type in all cases: cell-based
[1] = test system: interleukin-33 (IL-33) gene; assay: Inhibition of IL-33 gene expression in PMA-stimulated NHEK (real time PCR); conditions: Normal Human Epidermal Keratinocytes, PMA 25 ng/mL, 3 hours, compound 10 to 20 μM, GAPDH internal standard; FIG. 1 and FIG. 4
Protocol: The following provides the details of in vitro tests. 6×10^4 cells of Normal Human Epidermal Keratinocytes (NHEK manufactured by KURABO INDUSTRIES LTD.) were seeded on a 12 well plate and cultured at 37° C. under 5% CO2 conditions for 72 hours. The incubation medium was removed and then replaced by a culture medium including the following inflammatory stimulating substance (final concentration: 25 ng/mL) and the individual compound used in each of the above Test Examples, followed by further culturing at 37° C. under 5% CO2 conditions for 3 hours. Thereafter, total RNA was purified from cells according to the instruction manual of product name “PureLink RNA Mini kit” (INVITROGEN), and RNA purified using the test kit “ReverTra Ace™ qPCR RT Master Mix (manufactured by TOYOBO CO., LTD.)” was reverse-transcribed to cDNA. For the cDNA, IL-33 mRNA expression level was quantitatively evaluated by a real time PCR method. Glyceraldehyde-3-phosphate dehydrogenase (GAPDH) was used as an internal standard calibration. The compounds used in Test Examples were dissolved in dimethyl sulfoxide (DMSO) to prepare the individual stocks, and then respectively dissolved in the culture media to have a concentration of 10 to 20 μM. At this time, dilution was performed to allow DMSO to have a concentration (1% or less) at which no cytotoxicity is caused. […]

[2] = test system: interleukin-1β (IL-1β) gene; assay: Inhibition of IL-1β gene expression in PMA-stimulated NHEK (real time PCR); conditions: Normal Human Epidermal Keratinocytes, PMA 25 ng/mL, 3 hours, compound 10 to 20 μM, GAPDH internal standard; FIG. 3 and FIG. 6
[3] = test system: interleukin-1α (IL-1α) gene; assay: Inhibition of IL-1α gene expression in PMA-stimulated NHEK (real time PCR); conditions: Normal Human Epidermal Keratinocytes, PMA 25 ng/mL, 3 hours, compound 10 to 20 μM, GAPDH internal standard; FIG. 2 and FIG. 5

CCCCCCCCCCCCCCCC(=O)OC[C@H](O)[C@H]1OC(=O)C(OCC(O)CO)=C1O (stereo partly drawn) [2-O-glyceryl-6-O-hexadecanoyl ascorbic acid]
inhibited: IL-33 mRNA expression level [1] | expression of interleukin-1β (IL-1β) gene [2] | expression of interleukin-1α (IL-1α) gene [3]
